ChEMBL document CHEMBL5506073, “Discovery of Novel Ortho-Aminophenol Derivatives Targeting Lipid Peroxidation with Potent Antiferroptotic Activities” (J Med Chem, 2024)
Blank lines part the entries; values can stand above or below the molecule they belong to. Active and inactive are the calls of the source. The rule behind the calls is not given here.

Assays:
HT-1080 [1] = experiment: Inhibition of RSL3-induced ferroptosis in human HT-1080 cells assessed as cell viability incubated for 24 hrs by CCK8 assay; type: functional, cell-based; details: for EC50: HT-1080, 24 h
Mus musculus [2] = experiment: Protection against APAP-induced acute liver injury in overnight fasted C57BL/6 mouse model assessed as decrease in plasma AST level at 10 mg/kg, ip administered 1 hr prior to APAP treatment measured after 12 hrs post-APAP treatment under continuous fasting condition; type: functional, organism-based; details: time 13.0 hrs
Mus musculus [3] = experiment: Protection against APAP-induced acute liver injury in overnight fasted C57BL/6 mouse model assessed as decrease in plasma ALT level at 10 mg/kg, ip administered 1 hr prior to APAP treatment measured after 12 hrs post-APAP treatment under continuous fasting condition; type: functional, organism-based; details: time 13.0 hrs
Mus musculus [4] = experiment: Protection against APAP-induced acute liver injury in overnight fasted C57BL/6 mouse model assessed as reduction in 4-HNE formation in liver at 10 mg/kg, ip administered 1 hr prior to APAP treatment measured after 12 hrs post-APAP treatment under continuous fasting condition by IHC analysis; type: functional, organism-based; details: time 13.0 hrs
HT-1080 [5] = experiment: Inhibition of RSL3-induced ferroptosis in human HT-1080 cells assessed as cell viability at 200 nM incubated for 24 hrs by CCK8 assay; type: functional, cell-based
HKC [6] = experiment: Inhibition of RSL3-induced ferroptosis in human HKC cells assessed as cell viability at 200 nM incubated for 24 hrs by CCK8 assay; type: functional, cell-based
HK-2 [7] = experiment: Inhibition of RSL3-induced ferroptosis in human HK-2 cells assessed as cell viability at 200 nM incubated for 24 hrs by CCK8 assay; type: functional, cell-based
KHOS/NP [8] = experiment: Inhibition of RSL3-induced ferroptosis in human KHOS/NP cells assessed as cell viability at 200 nM incubated for 24 hrs by CCK8 assay; type: functional, cell-based
SW480 [9] = experiment: Inhibition of RSL3-induced ferroptosis in human SW480 cells assessed as cell viability at 200 nM incubated for 24 hrs by CCK8 assay; type: functional, cell-based
HTR-8/SVneo [10] = experiment: Inhibition of RSL3-induced ferroptosis in human HTR-8/SVneo cells assessed as cell viability at 200 nM incubated for 24 hrs by CCK8 assay; type: functional, cell-based
HT-1080 [11] = experiment: Inhibition of FIN56-induced ferroptosis in human HT-1080 cells assessed as cell viability at 200 nM incubated for 24 hrs by CCK8 assay; type: functional, cell-based
HKC [12] = experiment: Inhibition of FIN56-induced ferroptosis in human HKC cells assessed as cell viability at 200 nM incubated for 24 hrs by CCK8 assay; type: functional, cell-based
HK-2 [13] = experiment: Inhibition of FIN56-induced ferroptosis in human HK-2 cells assessed as cell viability at 200 nM incubated for 24 hrs by CCK8 assay; type: functional, cell-based
KHOS/NP [14] = experiment: Inhibition of FIN56-induced ferroptosis in human KHOS/NP cells assessed as cell viability at 200 nM incubated for 24 hrs by CCK8 assay; type: functional, cell-based
SW480 [15] = experiment: Inhibition of FIN56-induced ferroptosis in human SW480 cells assessed as cell viability at 200 nM incubated for 24 hrs by CCK8 assay; type: functional, cell-based
HTR-8/SVneo [16] = experiment: Inhibition of FIN56-induced ferroptosis in human HTR-8/SVneo cells assessed as cell viability at 200 nM incubated for 24 hrs by CCK8 assay; type: functional, cell-based
HT-1080 [17] = experiment: Inhibition of ferroptosis in human HT-1080 cells assessed as reversal of RSL3-induced cell shrinkage; type: functional, cell-based
HT-1080 [18] = experiment: Inhibition of ferroptosis in human HT-1080 cells assessed as reversal of RSL3-induced swelling; type: functional, cell-based
HT-1080 [19] = experiment: Inhibition of ferroptosis in human HT-1080 cells assessed as reversal of RSL3-induced membrane rupture; type: functional, cell-based
HT-1080 [20] = experiment: Inhibition of ferroptosis in human HT-1080 cells assessed as reversal of RSL3-induced normal morphological loss; type: functional, cell-based
HT-1080 [21] = experiment: Inhibition of RSL3-induced lipid peroxidation in human HT-1080 cells assessed as reduction in green fluorescence by C11-BODIPY581/591 probe based analysis; type: functional, cell-based
HT-1080 [22] = experiment: Inhibition of RSL3-induced lipid peroxidation in human HT-1080 cells assessed as reduction in MDA adduct accumulation by ELISA; type: functional, cell-based
HT-1080 [23] = experiment: Effect on lipid metabolism in human HT-1080 cells assessed as change in ACSL4 mRNA level by qRT-PCR analysis; type: functional, cell-based
HT-1080 [24] = experiment: Effect on lipid metabolism in human HT-1080 cells assessed as change in ALOX15 mRNA level by qRT-PCR analysis; type: functional, cell-based
HT-1080 [25] = experiment: Effect on lipid metabolism in human HT-1080 cells assessed as change in COX2 mRNA level by qRT-PCR analysis; type: functional, cell-based
HT-1080 [26] = experiment: Effect on glutathione metabolic pathway in human HT-1080 cells assessed as change in GPX4 mRNA level by qRT-PCR analysis; type: functional, cell-based
HT-1080 [27] = experiment: Effect on glutathione metabolic pathway in human HT-1080 cells assessed as change in SLC7A11 mRNA level by qRT-PCR analysis; type: functional, cell-based
HT-1080 [28] = experiment: Effect on iron metabolism in human HT-1080 cells assessed as change in DMT1 mRNA level by qRT-PCR analysis; type: functional, cell-based
HT-1080 [29] = experiment: Effect on iron metabolism in human HT-1080 cells assessed as change in TFRC mRNA level by qRT-PCR analysis; type: functional, cell-based
HT-1080 [30] = experiment: Effect on iron metabolism in human HT-1080 cells assessed as change in FTH1 mRNA level by qRT-PCR analysis; type: functional, cell-based
[31] = Antioxidant activity assessed as DPPH radical scavenging activity at 20 uM incubated for 30 mins by absorbance based assay; type: functional
Mus musculus [32] = experiment: Protection against kidney ischemia-reperfusion injury in C57BL/6 mouse model assessed as decrease in serum creatinine level at 10 mg/kg, ip administered twice 1 hr prior to ischemia onset measured after 24 hrs post-ischemia; type: functional, organism-based; details: time 25.0 hrs
Mus musculus [33] = experiment: Protection against kidney ischemia-reperfusion injury in C57BL/6 mouse model assessed as decrease in BUN level at 10 mg/kg, ip administered twice 1 hr prior to ischemia onset measured after 24 hrs post-ischemia; type: functional, organism-based; details: time 25.0 hrs
Mus musculus [34] = experiment: Protection against kidney ischemia-reperfusion injury in C57BL/6 mouse model assessed as decrease in renal tubule dilation at 10 mg/kg, ip administered twice 1 hr prior to ischemia onset measured after 24 hrs post-ischemia by H and E staining based analysis; type: functional, organism-based; details: time 25.0 hrs
Mus musculus [35] = experiment: Protection against kidney ischemia-reperfusion injury in C57BL/6 mouse model assessed as decrease in brush edges loss in kidney at 10 mg/kg, ip administered twice 1 hr prior to ischemia onset measured after 24 hrs post-ischemia by H and E staining based analysis; type: functional, organism-based; details: time 25.0 hrs
Mus musculus [36] = experiment: Protection against kidney ischemia-reperfusion injury in C57BL/6 mouse model assessed as decrease in cytoplasmic vacuoles in kidney at 10 mg/kg, ip administered twice 1 hr prior to ischemia onset measured after 24 hrs post-ischemia by H and E staining based analysis; type: functional, organism-based; details: time 25.0 hrs
Mus musculus [37] = experiment: Protection against kidney ischemia-reperfusion injury in C57BL/6 mouse model assessed as decrease in KIM-1 level in kidney at 10 mg/kg, ip administered twice 1 hr prior to ischemia onset measured after 24 hrs post-ischemia by IHC analysis; type: functional, organism-based; details: time 25.0 hrs
Mus musculus [38] = experiment: Protection against APAP-induced acute liver injury in overnight fasted C57BL/6 mouse model assessed as normal pathology of liver at 10 mg/kg, ip administered 1 hr prior to APAP treatment measured after 12 hrs post-APAP treatment under continuous fasting condition by H and E staining based analysis; type: functional, organism-based; details: time 13.0 hrs
Mus musculus [39] = experiment: Protection against APAP-induced acute liver injury in overnight fasted C57BL/6 mouse model assessed as reversal of native liver architecture at 10 mg/kg, ip administered 1 hr prior to APAP treatment measured after 12 hrs post-APAP treatment under continuous fasting condition by H and E staining based analysis; type: functional, organism-based; details: time 13.0 hrs
Mus musculus [40] = experiment: Protection against APAP-induced acute liver injury in overnight fasted C57BL/6 mouse model assessed as reduction in necrotic areas of liver at 10 mg/kg, ip administered 1 hr prior to APAP treatment measured after 12 hrs post-APAP treatment under continuous fasting condition by H and E staining based analysis; type: functional, organism-based; details: time 13.0 hrs
[41] = Antioxidant activity assessed as DPPH radical scavenging activity at 10 uM incubated for 30 mins by absorbance based assay; type: functional
HT-1080 [42] = experiment: Inhibition of RSL3-induced ferroptosis in human HT-1080 cells assessed as cell viability at 0.5 uM incubated for 24 hrs by CCK8 assay; type: functional, cell-based

Compound: Cc1ccc(/C=N/NC(=O)c2cccc(O)c2N)cc1
EC50 (HT-1080 [1]): 2620 nM

Compound: Nc1c(O)cccc1-c1nnc(SCC(=O)O)o1
EC50 (HT-1080 [1]): > 1000 nM

Compound: Nc1c(O)cccc1C(=O)N/N=C/c1ccc(C(=O)O)cc1
EC50 (HT-1080 [1]): > 1000 nM

Compound: N#Cc1cccc(/C=N/NC(=O)c2cccc(O)c2N)c1
EC50 (HT-1080 [1]): 727 nM

Compound: Nc1c(O)cccc1-c1nnc(SCc2ccc([N+](=O)[O-])cc2)o1
EC50 (HT-1080 [1]): 871 nM

These reach a lower EC50 (HT-1080 [1]). Values come first.

EC50 (HT-1080 [1]): 366 nM
Compound: Nc1c(O)cccc1-c1nnc(S)o1

EC50 (HT-1080 [1]): 237 nM
Compound: Cn1c(-c2cccc(O)c2N)nc2ccccc21

EC50 (HT-1080 [1]): 181 nM
Compound: Cc1cc2nc(-c3cccc(O)c3N)[nH]c2cc1C
Activity (Mus musculus [2]): Active
Activity (Mus musculus [3]): Active
Activity (Mus musculus [4]): Active
inhibition (HT-1080 [5]): Active
inhibition (HKC [6]): Active
inhibition (HK-2 [7]): Active
inhibition (KHOS/NP [8]): Active
inhibition (SW480 [9]): Active
inhibition (HTR-8/SVneo [10]): Active
inhibition (HT-1080 [11]): Active
inhibition (HKC [12]): Active
inhibition (HK-2 [13]): Active
inhibition (KHOS/NP [14]): Active
inhibition (SW480 [15]): Active
inhibition (HTR-8/SVneo [16]): Active
inhibition (HT-1080 [17]): Active
inhibition (HT-1080 [18]): Active
inhibition (HT-1080 [19]): Active
inhibition (HT-1080 [20]): Active
inhibition (HT-1080 [21]): Active
inhibition (HT-1080 [22]): Active
Activity (HT-1080 [23]): inactive
Activity (HT-1080 [24]): inactive
Activity (HT-1080 [25]): inactive
Activity (HT-1080 [26]): inactive
Activity (HT-1080 [27]): inactive
Activity (HT-1080 [28]): inactive
Activity (HT-1080 [29]): inactive
Activity (HT-1080 [30]): inactive
Activity [31]: Active
Activity (Mus musculus [32]): Active
Activity (Mus musculus [33]): Active
Activity (Mus musculus [34]): Active
Activity (Mus musculus [35]): Active
Activity (Mus musculus [36]): Active
Activity (Mus musculus [37]): Active
Activity (Mus musculus [38]): Active
Activity (Mus musculus [39]): Active
Activity (Mus musculus [40]): Active

EC50 (HT-1080 [1]): 603 nM
Compound: Nc1c(O)cccc1-c1nnc(SCc2ccc3ccccc3c2)o1

EC50 (HT-1080 [1]): 348 nM
Compound: Nc1c(O)cccc1-c1nnc(SCc2ccc(F)cc2)o1

EC50 (HT-1080 [1]): 526 nM
Compound: COC(=O)c1cccc(O)c1N
inhibition (HT-1080 [1]): Dose-Dependent Effect

EC50 (HT-1080 [1]): 302 nM
Compound: CCCOC(=O)c1cccc(O)c1N
Activity [41]: Active
inhibition (HT-1080 [42]): Active

EC50 (HT-1080 [1]): 388 nM
Compound: CC(C)OC(=O)c1cccc(O)c1N
Activity [41]: Active
inhibition (HT-1080 [42]): Active
